# Reference: patent US8318815B2, “Method for treatment of tumors using nordihydroguaiaretic acid derivatives” (priority 1999, dated 2012)
# Several values for one entry are separate records, joined by “and”; a condition that tells them apart may be missing. Equal entries are not always repeated. Marks after values point to notes of the source that are not given here.
# How the values were obtained:
# C3 tumor = C3 tumor growth in mice, local (intratumoral) injection; format: in vivo
# Description: Thirty six C57b1-16 NCR mice were injected with 5×10^5 C3 cells between the shoulders on the backs of the mice. Twenty four of the mice developed tumors within 20 days. […]
# 36 C57b1-16NCR mice were injected with 5×10^5 C3 cells/mouse. Injections were 100 μL made subcutaneously between the shoulders on the backs of the mice. Cells were suspended in low-salt HBSS and suspension uniformity was maintained by gentle vortexing.
# 24 mice developed tumors. Their lesion sizes were measured by dial caliper. These mice were shaved, weight and treatment begun (Day 1). Four were sequestered as controls. Control mice received 50 μl DMSO injected intratumorally daily. […]. Injections were made to several regions of tumor. Mice anesthetized with ether or metaphane prior to injection.
# The treatment regimen and results were as follows: • Day 10: Mice weighed again. […]. The skin at the lesion site of #17 cracked with the “dried-out tumor” showing. It was dissected, and lesion excised and weighed. […]. Remaining control mice (#1, 3, 4) were examined non-invasively and were carrying tumors. • Day 21: Tumor sizes from control mice were measured by dial caliper. […]. […]
# [1] = Initial animal toxicity studies of M4N in mice; format: in vivo
# C33a cell line = experiment: C33a cell growth; format: cell-based, human; details: three days
# Description: (§1) FIG. 9. […] (a-d) C3, CEM-T4, C33a, and TC-1 cells were treated with different concentrations of M4N. The number of cells present at the initiation of the experiment is indicated as Day 0. After three days the number of viable cells were counted and plotted versus the M4N concentration. […] After 3 days, one-half of the M4N treated cells were given fresh media containing only 1% DMSO (M-D), while the rest of the cells were given fresh media with the same conditions (second media change). The cells were counted daily and plotted versus the time of treatment.
# CEM-T4 line = experiment: CEM-T4 cell growth; format: cell-based, human; details: three days
# Description: as §1
# CDC2 mRNA = experiment: Northern blot of CDC2 mRNA in C3 cells; details: 40 μM
# caspase-3 = details: C3 cells, 72 hours
# E6/E7 mRNA = experiment: RT-PCR of HPV-16 E6/E7 transcripts in C3 cells; details: 40 μM
# Description: The RTPCR samples were removed after increasing cycles of amplification and resolved on an agarose gel.
# The RT-PCR product was analyzed on a 2% agarose gel.
# C3 cells = experiment: Cell cycle DNA content by propidium iodide flow cytometry, C3; details: C3, 72 hours
# Description: (§2) The cells were trypsinized, fixed with ethanol, stained with propidium iodide, and were subsequently analyzed by flow cytommetry. […] The indicated stages of the cell cycle are labeled and correspond to the relative cellular DNA compliment as determined by staining intensity.
# [2] = test system: SP1-regulated HPV E6/E7 promoter; experiment: HPV16 LCR (P97 promoter) luciferase reporter assay in C33A cells; details: thirty hours after drug treatment
# CEM-T4 cells = experiment: Cell cycle DNA content by propidium iodide flow cytometry, CEM-T4; details: CEMT4, 72 hours
# Description: as §2
# [3] = mice carrying multiple tumors, per mouse
# [4] = mice with single tumors, per mouse
compound,measurement,setting,value
"COc1ccc(C[C@@H](C)[C@@H](C)Cc2ccc(OC)c(OC)c2)cc1OC [M4N, tetra-O-methylnordihydroguaiaretic acid]",body weight changes during the entire experimental period,C3 tumor; Tables 1 and 2,insignificant
same,tumor growth in mice,C3 tumor; daily injection of 50 μl to 100 μl for several days,completely stop tumor growth
same,average weight of treated lesions,"C3 tumor; mice carrying multiple tumors, drug injected into one of the tumors",0.15 g
same,Body wt. Day 1,C3 tumor; [3],17.8 g and 20.2 g and 17.5 g
same,Body wt. Day 24,C3 tumor; [3],20.0 g and 17.9 g and 22.1 g
same,"Wt. Of Excised Lesion, Treated","C3 tumor; mice carrying multiple tumors, drug injected directly to the tumor regions, per mouse",0.11 g and 0.25 g and 0.1 g
same,average weight of excised lesions,"C3 tumor; mice carrying single tumors, control group 1.48 g",0.142 g
same,Body wt. Day 1,C3 tumor; [4],19 g and 18.2 g and 19.5 g and 17 g and 18.9 g and 17.2 g and 17.3 g
same,Body wt. Day 16,C3 tumor; [4],19.2 g and 17.6 g (2×) and 20.0 g
same,Body wt. Day 24,C3 tumor; [4],20.4 g and 20.2 g
same,Wt. Of Excised Lesion Day 16,C3 tumor; [4],0.2 g and 0.4 g and 0.1 g and 0 g
same,Wt. Of Excised Lesion Day 24,C3 tumor; [4],0.1 g and 0 g
same,"Wt. Of Excised Lesion, taken on Day 15","C3 tumor; mouse 17, single tumor",0.2** g
same,non-toxic to mice at concentrations as high as,[1]; given either subcutaneously or by IV,≤ 375 mg/kg
same,non-toxic to mice at concentrations as high as,[1]; given intraperitoneally,≤ 300 mg/kg
same,growth of C33a cell line,C33a cell line,blocked
same,growth of CEM-T4 line,CEM-T4 line,blocked
same,amount of CDC2 mRNA,CDC2 mRNA; 24 hours,reduced
same,amount of CDC2 mRNA,CDC2 mRNA; 72 hours,nearly eliminated
same,caspase-3 cleavage,caspase-3,caspase-3 activation
same,levels of the E7 transcript,"E6/E7 mRNA; 5 to 72 hours, rtPCR",clear reduction
same,amplified E7 (321 bp) and E6 (204 bp) RT-PCR products,"E6/E7 mRNA; 71 hours, following 30 cycles of amplification",barely detectable
same,cells showing G2/M DNA content,C3 cells,> 90%
same,Sp1 regulated transcription initiation at the HPV E6/E7 promoter (specific luciferase activity),[2],dramatically reduces
same,cells showing G2/M DNA content,CEM-T4 cells,> 90%
